The target in series [1] is T1, Human recombinant SIRT2 (Homo sapiens, UniProt Q8IXJ6).
T1 sequence (Q8IXJ6 1-389): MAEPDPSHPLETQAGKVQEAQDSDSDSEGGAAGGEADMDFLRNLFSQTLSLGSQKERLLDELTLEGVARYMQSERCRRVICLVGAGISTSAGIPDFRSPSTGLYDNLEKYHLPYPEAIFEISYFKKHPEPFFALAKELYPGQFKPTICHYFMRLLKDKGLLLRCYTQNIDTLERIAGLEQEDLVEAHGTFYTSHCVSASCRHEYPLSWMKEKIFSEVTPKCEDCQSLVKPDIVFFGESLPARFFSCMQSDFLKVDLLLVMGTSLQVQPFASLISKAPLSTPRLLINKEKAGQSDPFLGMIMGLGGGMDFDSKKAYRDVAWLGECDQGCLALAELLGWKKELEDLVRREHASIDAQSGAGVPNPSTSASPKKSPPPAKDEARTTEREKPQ
Description: SIRT2 deacetylation assay (Fluor de Lys-SIRT2). Format: biochemical. As to conditions: 25 μM Fluor de Lys-SIRT2, 25 μM NAD+, 20 minutes, 37° C. The text has this:
Yeast Sir2 and human SIRT1 are very homologous and differ from human SIRT2 by the addition of an N-terminal domain that is absent in SIRT2. […] Thus, based on the difference in structure of SIRT1 and SIRT2, i.e., the absence of an N-terminal domain (see FIG. 8), it is believed that the N-terminal domain of SIRT1 and Sir2 is necessary for activation by the compounds described herein. In particular, it is likely that the activator compounds described herein interact with the N-terminal portion of sirtuins. The N-terminal portion of SIRT1 that is necessary for the action of the compounds is from about amino acid 1 to about amino acid 176, and that of Sir2 is from about amino acid 1 to about amino acid 175.

Series [2] relates to rDNA recombination. Kind of series: Ribosomal DNA recombination frequency (loss of ADE2 marker). In kind it is cell-based, S. cerevisiae. The note with it: SIR2-dependent.
In series [3] the target is T2, recombinant dSir2 (Drosophila melanogaster, UniProt Q9VK34).
T2 sequence (Q9VK34 1-823): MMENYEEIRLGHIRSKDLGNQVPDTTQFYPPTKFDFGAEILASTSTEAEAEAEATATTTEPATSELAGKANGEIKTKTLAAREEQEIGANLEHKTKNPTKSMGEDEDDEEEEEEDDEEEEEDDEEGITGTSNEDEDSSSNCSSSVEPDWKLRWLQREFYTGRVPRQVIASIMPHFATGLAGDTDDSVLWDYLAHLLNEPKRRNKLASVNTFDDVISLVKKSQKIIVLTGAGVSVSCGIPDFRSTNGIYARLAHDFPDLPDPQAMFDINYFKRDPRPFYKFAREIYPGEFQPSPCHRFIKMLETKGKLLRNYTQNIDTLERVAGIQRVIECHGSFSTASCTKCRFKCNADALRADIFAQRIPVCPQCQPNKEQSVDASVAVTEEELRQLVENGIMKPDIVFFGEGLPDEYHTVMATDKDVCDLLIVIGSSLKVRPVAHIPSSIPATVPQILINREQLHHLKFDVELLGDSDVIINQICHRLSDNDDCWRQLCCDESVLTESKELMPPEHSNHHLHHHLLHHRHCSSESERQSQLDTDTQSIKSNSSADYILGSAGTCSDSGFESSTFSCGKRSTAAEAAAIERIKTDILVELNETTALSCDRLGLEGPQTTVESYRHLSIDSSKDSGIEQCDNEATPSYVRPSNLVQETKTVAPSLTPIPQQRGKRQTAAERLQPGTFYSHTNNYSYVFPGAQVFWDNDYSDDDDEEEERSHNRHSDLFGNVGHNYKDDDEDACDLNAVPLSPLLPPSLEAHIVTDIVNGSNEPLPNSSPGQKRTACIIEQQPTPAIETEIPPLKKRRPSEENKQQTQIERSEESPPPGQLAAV
Kind of series: dSir2 deacetylation assay (Fluor de Lys). In kind it is biochemical, D. melanogaster. The note with it: dose-dependent; 25 μM NAD+, 10 μM FdL. On the procedure: His6-tagged recombinant SIR-2.1 and dSir2 were purified from E. coli BL21(DE3) plysS cells harboring either pET28a-sir-2.1 or pRSETc-dSir2 plasmids. Cells were grown in LB medium containing kanamycin (50 μg/mL) for pET28a-sir-2.1 or ampicillin (100 μg/ml) and chloramphenicol (25 μg/ml) for pRSETc-dSir2 at 30° C. (dSir2) or 37° C. (SIR-2.1) to an OD600 of 0.6-0.8.
From 0.1 to 1 μg of SIR-2.1 and 1 μg of dSir2 were used per deacetylation assay as previously described with modifications (SIR-2.1: 200 μM NAD^+, 10 μM Fluor de Lys, FdL; dSir2: 25 μM NAD^+, 10 μM FdL)^26. […] Drosophila S2 cells were grown in Schneider media with fetal calf serum at 23-28° C., seeded at 9×10^4 cells/well, grown overnight and then exposed to 1 μM TSA, 500 μM polyphenols, and 200 μM FdL for 2 hr. […] Unless otherwise indicated all initial rate measurements were means of three or more replicates obtained with single incubation times, at which point 5% or less of the substrate initially present was deacetylated.

The test system of series [4] is S. cerevisiae. Description: Yeast replicative lifespan by micro-manipulation. As to conditions: for Average lifespan, growth on resveratrol: wild type untreated 21.0.
For series [5], the system named is C. elegans. Kind of series: C. elegans lifespan assay. In kind it is in vivo. As to the method:
Thus, the presence of resveratrol in the growth media of C. elegans extends their lifespan.
Bristol N2 (Caenorhabditis Genetics Center) was used as the wild-type strain. The sir-2.1 mutant strain was generated by backcrossing VC199 (sir-2.1 (ok434)) to N2 four times. Cultures were grown on standard NGM media and maintained on E. coli strain OP50. For the lifespan assays, synchronized animals were transferred to treatment plates as young adults (2 d after hatching, day 0 of assay), and were transferred to fresh treatment plates every 2 days for the first 6 to 8 days of the assay. […] For some lifespan trials, heat-killed OP50 were used as a food source. OP50 cultures were heated to 65° C. for 30 minutes, then pelleted and resuspended in 1/10 volume in S Basal supplemented with 10 mM MgSO4. In all assays, worms were monitored daily for mortality by gently probing with a platinum pick. Assays were performed at 24° C.

Series [6] deals with Human 293 cells. Kind of series: Survival of 293 cells (Coulter counter). The note with it: 50 micromolar. Format: cell-based. On the procedure: Human 293 were grown to exponential phase under standard conditions and subjected to a dose of compound (50 micromolar) for 96 hours. The number of live cells each time point was counted using a Coulter counter.

The structures appear in SMILES notation. Bounds are passed on as bounds.

In the case of `Oc1ccc(/C=C/c2cc(O)cc(O)c2)cc1` [Resveratrol, 3,5,4′-Trihydroxy-trans-stilbene], the “effect of increasing concentrations on SIRT2 activity” value in series [1] is on record as “decrease”. For the same compound, in series [2], the “reduction of the frequency of rDNA recombination” value was roughly 60%. The “stimulation of deacetylation, dSir2 (up to)” value in series [3] is recorded as no more than 2.4 fold. The compound also yielded an Average lifespan in series [4] (10 μM, complete 2% glucose medium, wild type untreated 22.9) of 36.8 generations. Further, the results for the “Average lifespan, growth on resveratrol” value in series [4] (10 μM), in series [4] (100 μM) and in series [4] (500 μM) were 35.7 generations, 29.4 generations and 29.3 generations, respectively. Further, the “Average lifespan, glucose-restricted+resveratrol (CR+R)” value in series [4] (glucose restriction) is 39.9 generations. Moreover, in series [4] (pnc1Δ untreated 19.2), the “Average lifespan, pnc1Δ+resveratrol” value is 33.1 generations. Further, the “Average lifespan, sir2Δ+resveratrol” value in series [4] (sir2Δ untreated 9.9) is recorded as 10.0 generations. Moreover, the “Average lifespan, wild type+resveratrol (wt+R)” value in series [4] (wild type untreated 19.0) was found to be 37.8 generations. Moreover, the lifespan extension in series [5] (sir-2.1 mutants, 100 μM, heat-killed OP50, not statistically significant) came to 5.2%; in series [5] (sir-2.1 mutants, 100 μM, live OP50, P=0.81) it was 3.3%; in series [5] (wild-type N2, 100 μM, live OP50), 12.6%. Further, the “lifespan extension (up to)” value in series [5] (wild-type worms, 100 μM, heat-killed or live E. coli) was “up to 15%”. For the same compound, the “Survival of 293 cells” value came to 100% in series [6] (0 h), 5% in series [6] (48 h) and 0% in series [6] (96 h).

The record behind these values is patent US7544497B2, “Compositions for manipulating the lifespan and stress response of cells and organisms” (President and Fellows of Harvard College, priority 2003, dated 2009).
